Data on 13 molecules can be found in PubChem BioAssay (NCI).

Test systems include SN12C renal; IGROV1 ovarian; EKVX NSCLC; SW-620 colon; KM12 colon; U251 CNS; UACC-62 melanoma; HCT-116 colon; NCI-H23 lung; UACC-257 melanoma.
Common to all, as to test: inhibition of tumour cell growth, NCI panel, 48 h

Each structure is given as a SMILES string.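 48-hour exposure; five concentrations; linearly interpolated endpoints. GI50 = concentration required for 50% inhibition of growth. TGI: total growth inhibition.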

`O=C(CC1(O)C(=O)N(Cc2ccccc2)c2ccc(F)cc21)c1ccc(C(=O)NCC2CCC3(CC2)OOC2(CCCCC2)OO3)cc1` (stereo not given): the GI50 in the assay with SN12C renal was 1.73 µM; with IGROV1 ovarian it was 0.236 µM; in the assay with EKVX NSCLC, 0.412 µM; with SW-620 colon, 1.84 µM; with KM12 colon, 0.338 µM; with U251 CNS it was 0.251 µM. Besides, the GI50 was 2.18 µM in the assay on UACC-62 melanoma, 1.36 µM with HCT-116 colon, 0.246 µM in the assay on NCI-H23 lung and 4.78 µM in the assay on UACC-257 melanoma. Moreover, the TGI with SN12C renal was 3.74 µM; in the assay with IGROV1 ovarian, 0.62 µM; in the assay with EKVX NSCLC, 1.25 µM; with SW-620 colon, 4.3 µM; in the assay on KM12 colon it was 1.19 µM; in the assay with U251 CNS it was 0.674 µM. In addition, the TGI with UACC-62 melanoma is 5.61 µM; in the assay with HCT-116 colon, 3.29 µM; in the assay with NCI-H23 lung, 0.634 µM; in the assay with UACC-257 melanoma, 31.7 µM.
As for `COc1ccc(-c2nc3ccc(-c4nc5ccc(N6CCN(c7ccccc7)CC6)cc5[nH]4)cc3[nH]2)cc1OC`, the GI50 with SN12C renal was 5.98 µM; in the assay with IGROV1 ovarian it was 1.65 µM; in the assay with EKVX NSCLC, 2.29 µM; in the assay on SW-620 colon, 1.15 µM; with KM12 colon it was 1.84 µM; in the assay on U251 CNS, 1.2 µM. Moreover, the GI50 with UACC-62 melanoma is 1.41 µM; with HCT-116 colon, 0.281 µM; in the assay with NCI-H23 lung, 1.77 µM; in the assay with UACC-257 melanoma, 2.05 µM. Moreover, the TGI with SN12C renal worked out at 18.6 µM; in the assay with IGROV1 ovarian, 3.44 µM; in the assay on EKVX NSCLC, 5.07 µM; with SW-620 colon, 2.71 µM; in the assay on KM12 colon, 4.01 µM; in the assay with U251 CNS it was 3.02 µM. The TGI in the assay on UACC-62 melanoma is 3.63 µM; in the assay with HCT-116 colon, 1.11 µM; in the assay on NCI-H23 lung, 3.66 µM; in the assay with UACC-257 melanoma, 4.4 µM.
In the case of `O=C(N[C@@H](c1ccc(Cl)c(Cl)c1)C1CNC1)c1ccc2cnccc2c1`, the GI50 was 0.715 µM in the assay on SN12C renal; 0.0324 µM in the assay on IGROV1 ovarian; 0.288 µM with EKVX NSCLC; 0.41 µM in the assay with SW-620 colon; 0.314 µM in the assay on KM12 colon; 0.475 µM in the assay on U251 CNS. Moreover, the GI50 with UACC-62 melanoma was 0.171 µM; in the assay on HCT-116 colon it was 0.33 µM; in the assay on NCI-H23 lung, 0.336 µM; in the assay on UACC-257 melanoma, 0.49 µM. Moreover, the TGI in the assay on SN12C renal stood at 7.45 µM; in the assay with IGROV1 ovarian, 4.69 µM; in the assay on EKVX NSCLC, 16.9 µM; with SW-620 colon, 12.3 µM; in the assay with KM12 colon, 4.44 µM; with U251 CNS, 4.26 µM. The TGI in the assay on UACC-62 melanoma came out at 0.866 µM; in the assay on HCT-116 colon, 10.4 µM; with NCI-H23 lung, 10.8 µM; in the assay on UACC-257 melanoma, 4.84 µM.
For the molecule `COc1ccc(NC(=O)/C(Cc2cc(=O)oc3cc(O)ccc23)=N\NC(C)(C)C)c(OC)c1`, the TGI with SN12C renal, in the assay on IGROV1 ovarian, in the assay with EKVX NSCLC, with SW-620 colon, in the assay with KM12 colon and in the assay with U251 CNS was greater than 100 µM each time. Further, the TGI in the assay on UACC-62 melanoma, in the assay with HCT-116 colon, in the assay on NCI-H23 lung and in the assay with UACC-257 melanoma was greater than 100 µM each time.
On to `O=C(Nc1ccncc1)C(=O)c1cn(S(=O)(=O)c2ccc(F)cc2)c2ccccc12`, for which the GI50 was 6.58 µM with SN12C renal; 4.23 µM with IGROV1 ovarian; 3.9 µM with EKVX NSCLC; 2.34 µM in the assay with SW-620 colon; 1.49 µM with KM12 colon; 3.48 µM with U251 CNS. Besides, the GI50 was 3.4 µM in the assay on UACC-62 melanoma, 0.781 µM in the assay with HCT-116 colon, 2.54 µM in the assay with NCI-H23 lung and 11.7 µM in the assay with UACC-257 melanoma. For the same molecule, the TGI with SN12C renal, in the assay with IGROV1 ovarian, in the assay with EKVX NSCLC, in the assay with SW-620 colon, in the assay with KM12 colon and with U251 CNS was greater than 100 µM in each case. The TGI in the assay with UACC-62 melanoma is greater than 100 µM; in the assay with HCT-116 colon it was 34.1 µM; with NCI-H23 lung it was greater than 100 µM; in the assay on UACC-257 melanoma, greater than 100 µM.
In the case of `CCOc1ccc(NC(=O)CC#N)cc1`, the TGI in the assay on SN12C renal, in the assay with IGROV1 ovarian, in the assay on EKVX NSCLC, in the assay with SW-620 colon, with KM12 colon and in the assay with U251 CNS was greater than 100 µM in each case. Besides, the TGI with UACC-62 melanoma, in the assay with HCT-116 colon, in the assay with NCI-H23 lung and in the assay with UACC-257 melanoma was greater than 100 µM throughout.
Take `CCCN1C(=O)N(CCC)C2C1NC(=S)N2/N=C/C=C/c1ccccc1OC` (stereo not given): the GI50 with SN12C renal was 1.84 µM; in the assay with IGROV1 ovarian, 0.831 µM; in the assay on EKVX NSCLC, 2.22 µM; with SW-620 colon, 0.416 µM; in the assay on KM12 colon it was 0.422 µM; in the assay on U251 CNS it was 0.588 µM. Besides, the GI50 was 0.599 µM with UACC-62 melanoma, 0.445 µM in the assay on HCT-116 colon, 2.66 µM in the assay with NCI-H23 lung and 20.3 µM with UACC-257 melanoma. Besides, the TGI is 33.3 µM with SN12C renal; greater than 100 µM in the assay with IGROV1 ovarian; greater than 100 µM in the assay on EKVX NSCLC; greater than 100 µM in the assay with SW-620 colon; greater than 100 µM in the assay on KM12 colon; 27.4 µM with U251 CNS. The TGI was 47 µM in the assay with UACC-62 melanoma, greater than 100 µM in the assay with HCT-116 colon, greater than 100 µM in the assay on NCI-H23 lung and greater than 100 µM in the assay on UACC-257 melanoma.
On to `COc1ccc(Nc2nnc(-c3cc(O)ccc3O)s2)cc1`, for which the GI50 with SN12C renal is 7.73 µM; in the assay with IGROV1 ovarian, 28.9 µM; in the assay on EKVX NSCLC, greater than 50 µM; in the assay with SW-620 colon it was 11.3 µM; in the assay with KM12 colon, 32.6 µM; in the assay on U251 CNS, 16.7 µM. In addition, the GI50 with UACC-62 melanoma is 9.89 µM; with HCT-116 colon, 21.9 µM; with NCI-H23 lung, greater than 50 µM; in the assay with UACC-257 melanoma, greater than 50 µM. Also, the TGI is 19.2 µM in the assay with SN12C renal; greater than 50 µM in the assay with IGROV1 ovarian; greater than 50 µM in the assay on EKVX NSCLC; 22.8 µM with SW-620 colon; greater than 50 µM in the assay with KM12 colon; greater than 50 µM in the assay on U251 CNS. Moreover, the TGI is 20.8 µM with UACC-62 melanoma, greater than 50 µM with HCT-116 colon, greater than 50 µM in the assay on NCI-H23 lung and greater than 50 µM in the assay on UACC-257 melanoma.
Take `CN1CCOC(c2ccccc2)O1` (stereo not given): the TGI in the assay with SN12C renal, with IGROV1 ovarian, in the assay on EKVX NSCLC, in the assay with SW-620 colon, with KM12 colon and with U251 CNS was greater than 100 µM each time. Also, the TGI in the assay with UACC-62 melanoma, in the assay on HCT-116 colon, in the assay with NCI-H23 lung and in the assay on UACC-257 melanoma was greater than 100 µM each time.
As for `CCC[CH2][Sn]([Cl])([CH2]CCC)[CH2]CCC`, the GI50 with SN12C renal was 0.119 µM; in the assay on IGROV1 ovarian it was 0.169 µM; in the assay with EKVX NSCLC, 0.0564 µM; with SW-620 colon, 0.125 µM; in the assay with KM12 colon it was 0.123 µM; in the assay on U251 CNS it was 0.113 µM. Also, the GI50 is 0.135 µM in the assay with UACC-62 melanoma, 0.0569 µM in the assay on HCT-116 colon, 0.0552 µM with NCI-H23 lung and 0.108 µM in the assay with UACC-257 melanoma. The TGI with SN12C renal was determined as 0.254 µM; in the assay with IGROV1 ovarian, 0.625 µM; with EKVX NSCLC, 0.364 µM; in the assay with SW-620 colon, 0.273 µM; in the assay with KM12 colon, 0.264 µM; in the assay on U251 CNS it was 0.236 µM. In addition, the TGI in the assay with UACC-62 melanoma is 0.373 µM; with HCT-116 colon, 0.188 µM; in the assay on NCI-H23 lung it was 0.211 µM; with UACC-257 melanoma it was 0.248 µM.
For the molecule `O=C(CSc1nc2ccccc2nc1-c1ccccc1)Nc1ccc(F)cc1`, the GI50 is 36.5 µM in the assay with SN12C renal; 42.4 µM in the assay on IGROV1 ovarian; 75 µM in the assay on EKVX NSCLC; 61 µM with SW-620 colon; 44.8 µM in the assay on KM12 colon; 38.8 µM with U251 CNS. In addition, the GI50 is 48.5 µM with UACC-62 melanoma, 14.1 µM in the assay on HCT-116 colon, 69.7 µM with NCI-H23 lung and 92.8 µM with UACC-257 melanoma. Also, the TGI in the assay with SN12C renal, in the assay with IGROV1 ovarian, in the assay with EKVX NSCLC, in the assay on SW-620 colon, with KM12 colon and in the assay on U251 CNS was greater than 100 µM each time. Besides, the TGI was greater than 100 µM in the assay with UACC-62 melanoma, 28.7 µM in the assay with HCT-116 colon, greater than 100 µM in the assay with NCI-H23 lung and greater than 100 µM with UACC-257 melanoma.
For the molecule `O=C(/C=C/c1cccc2ccccc12)c1ccccc1Cl`, the TGI in the assay on SN12C renal was greater than 100 µM; with IGROV1 ovarian it was 31 µM; in the assay on EKVX NSCLC, 28.6 µM; in the assay on SW-620 colon, 17.6 µM; in the assay with KM12 colon it was 21.3 µM; in the assay with U251 CNS it was 23.7 µM. The TGI was 27.3 µM in the assay on UACC-62 melanoma, 20.9 µM with HCT-116 colon, 28.5 µM in the assay on NCI-H23 lung and 31.3 µM with UACC-257 melanoma.
Consider `O=c1ccn([C@H]2CSC[C@@H](CO)C2)c(=O)[nH]1`, for which the TGI in the assay on SN12C renal, in the assay with IGROV1 ovarian, in the assay with EKVX NSCLC, in the assay on SW-620 colon, in the assay with KM12 colon and with U251 CNS was greater than 100 µM throughout. In addition, the TGI with UACC-62 melanoma, in the assay on HCT-116 colon, in the assay on NCI-H23 lung and in the assay on UACC-257 melanoma was greater than 100 µM each time.
